The record followed here is ChEMBL document CHEMBL3612012, “Identification of orally-bioavailable antagonists of the TRPV4 ion-channel” (Bioorg Med Chem Lett, 2015).

Values after ≈ are worked out from the molar mass of the structure shown. Bounds are passed on as bounds.

In data set [1] the target is Transient receptor potential cation channel subfamily V member 4 (Homo sapiens, UniProt Q9HBA0). Briefly: Antagonist activity at human TRPV4 receptor expressed in HEK293 cells assessed as inhibition of EC80 of 4alpha-PDD-stimulated calcium flux after 10 mins. It counts as cell-based.
The target of data set [2] is Transient receptor potential cation channel subfamily V member 4 (Rattus norvegicus, UniProt Q9ERZ8). Briefly: Antagonist activity at rat TRPV4 receptor expressed in HEK293 cells assessed as inhibition of EC80 of 4alpha-PDD-stimulated calcium flux after 10 mins. It counts as cell-based. In general terms: A change in cytosolic calcium serves as a functional read-out for many receptors and channels.

Data set [3] is described as follows: Plasma protein binding in human. Format: ADME, cell-free. As to conditions: read-out: PPB (converted).
Data set [4] is described as follows: AUC (infinity) in Wistar rat at 1.80 mg/kg, po. Details: dose 1.8 mg/kg, time infinity, route oral. It counts as ADME, organism-based. The conditions noted are these: in vivo, 1.8 mg/kg.
Data set [5] can be described thus: Plasma protein binding in rat. It counts as ADME, cell-free. The conditions noted are these: read-out: PPB (converted).
Data set [6] can be described thus: Solubility of the compound at pH 7.4. It counts as physicochemical. The conditions noted are these: buffer.
A short description of data set [7]: Volume of distribution at steady state in Wistar rat at 1.05 mg/kg, iv. Format: ADME, organism-based. The conditions noted are these: in vivo, read-out: Vdss.
Data set [8] can be described thus: Half life in Wistar rat at 1.05 mg/kg, iv. It counts as ADME, organism-based. As to conditions: in vivo.
The nature of data set [9]: Oral bioavailability in Wistar rat at 1.80 mg/kg. As to conditions: in vivo, 1.8 mg/kg. It counts as ADME, organism-based.
Data set [10] is described as follows: Cmax in Wistar rat at 1.80 mg/kg, po. Details: dose 1.8 mg/kg, route oral. As to conditions: in vivo, 1.8 mg/kg. It counts as ADME, organism-based.
Data set [11] is described as follows: AUC (infinity) in Wistar rat at 1.05 mg/kg, iv. It counts as ADME, organism-based. More on the design: dose 1.05 mg/kg, route intravenous, time infinity. As to conditions: in vivo.
Data set [12] is described as follows: Clearance in Wistar rat at 1.05 mg/kg, iv. It counts as ADME, organism-based. The conditions noted are these: in vivo.

Chain of Transient receptor potential cation channel subfamily V member 4 (Homo sapiens, UniProt Q9HBA0) (Q9HBA0 whole entry): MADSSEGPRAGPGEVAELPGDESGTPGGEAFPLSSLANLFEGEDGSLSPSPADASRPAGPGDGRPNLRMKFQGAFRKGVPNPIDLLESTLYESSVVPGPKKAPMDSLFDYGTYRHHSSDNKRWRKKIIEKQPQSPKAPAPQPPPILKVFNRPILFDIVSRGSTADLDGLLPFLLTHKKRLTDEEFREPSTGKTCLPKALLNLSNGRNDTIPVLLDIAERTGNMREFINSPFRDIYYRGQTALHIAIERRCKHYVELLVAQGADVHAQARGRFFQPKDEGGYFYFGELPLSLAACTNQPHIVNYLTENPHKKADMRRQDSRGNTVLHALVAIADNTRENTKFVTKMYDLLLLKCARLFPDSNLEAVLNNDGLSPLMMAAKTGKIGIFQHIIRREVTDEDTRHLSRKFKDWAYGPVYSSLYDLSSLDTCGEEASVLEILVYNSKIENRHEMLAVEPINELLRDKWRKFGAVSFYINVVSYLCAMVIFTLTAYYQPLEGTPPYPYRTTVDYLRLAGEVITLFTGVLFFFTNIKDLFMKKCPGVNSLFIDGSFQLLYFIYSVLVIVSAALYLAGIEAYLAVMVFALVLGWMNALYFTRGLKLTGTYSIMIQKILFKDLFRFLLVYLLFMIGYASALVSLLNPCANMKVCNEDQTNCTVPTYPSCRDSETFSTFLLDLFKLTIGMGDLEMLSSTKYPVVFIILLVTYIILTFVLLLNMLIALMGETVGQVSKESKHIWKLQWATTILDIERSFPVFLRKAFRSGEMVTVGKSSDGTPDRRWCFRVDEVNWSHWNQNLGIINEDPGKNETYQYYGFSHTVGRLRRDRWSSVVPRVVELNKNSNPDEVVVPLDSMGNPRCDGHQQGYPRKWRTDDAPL
Chain of Transient receptor potential cation channel subfamily V member 4 (Rattus norvegicus, UniProt Q9ERZ8) (Q9ERZ8 whole entry): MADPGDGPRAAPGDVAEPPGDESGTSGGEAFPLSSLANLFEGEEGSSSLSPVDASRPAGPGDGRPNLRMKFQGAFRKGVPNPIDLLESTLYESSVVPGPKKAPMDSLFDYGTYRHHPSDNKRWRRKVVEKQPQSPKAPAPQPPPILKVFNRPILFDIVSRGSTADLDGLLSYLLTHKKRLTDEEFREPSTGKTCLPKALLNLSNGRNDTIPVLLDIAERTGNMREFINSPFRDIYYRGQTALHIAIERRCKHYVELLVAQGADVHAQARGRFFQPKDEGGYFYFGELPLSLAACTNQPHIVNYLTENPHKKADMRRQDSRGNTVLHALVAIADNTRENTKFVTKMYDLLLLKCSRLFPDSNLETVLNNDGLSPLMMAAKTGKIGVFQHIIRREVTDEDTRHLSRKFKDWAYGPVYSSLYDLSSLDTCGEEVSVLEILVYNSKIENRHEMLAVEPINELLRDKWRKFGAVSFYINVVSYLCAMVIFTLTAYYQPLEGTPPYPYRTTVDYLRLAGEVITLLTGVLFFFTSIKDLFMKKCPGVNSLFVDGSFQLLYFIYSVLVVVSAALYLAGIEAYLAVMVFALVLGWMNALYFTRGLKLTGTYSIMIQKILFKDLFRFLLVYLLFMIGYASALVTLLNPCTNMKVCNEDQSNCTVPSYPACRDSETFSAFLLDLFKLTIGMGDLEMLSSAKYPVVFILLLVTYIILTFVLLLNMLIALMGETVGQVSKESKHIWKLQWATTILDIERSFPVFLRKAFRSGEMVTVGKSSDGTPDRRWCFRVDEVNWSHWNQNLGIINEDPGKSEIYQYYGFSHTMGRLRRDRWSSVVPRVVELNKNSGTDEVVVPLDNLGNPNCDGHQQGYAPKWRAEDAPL

As usually defined, the IC50 is the concentration that inhibits the measured activity by half. Turning to `CCN(CC)C1CCN(S(=O)(=O)c2ccc(NC(=O)c3ccc(C(F)(F)F)cc3)cc2)CC1`, the IC50 in data set [1] is 910 nM.

With `CC(C)N1CCN(S(=O)(=O)c2ccc(NC(=O)c3ccc(C(F)(F)F)cc3C(F)(F)F)cc2)CC1`, the values for the IC50 in data set [1] and in data set [2] were 540 nM and 490 nM, respectively.

With `CC(C)N1CCN(S(=O)(=O)c2ccc(NC(=O)c3ccc(-c4ccccn4)cc3)cc2)CC1`, the IC50 in data set [1] worked out at 4930 nM; in data set [2], 6490 nM.

On to `CC(C)N1CCN(S(=O)(=O)c2ccc(NC(=O)c3ccccc3)cc2)CC1`, for which the results for the IC50 in [1] and in data set [2] were 8530 nM and 4300 nM, respectively.

For orientation: AUC(0-inf) means total exposure, with the tail of the curve extrapolated. A lower AUC(0-inf) goes with low exposure. One may read the solubility as the dissolved amount per volume that the medium holds. A higher solubility goes with a readily soluble substance. One may read the half-life as how long it takes for the measured level to halve. Low values mean rapid decline, high ones slow decline. What is called bioavailability is dose-corrected exposure relative to a reference, in per cent. A high value points to much systemic uptake. As a reminder, the Cmax is the maximum level reached in the sampled fluid or tissue. The term clearance denotes a measure of how efficiently the substance is removed, as volume per time. A high value points to a high capacity for elimination. As for `CC(C)N1CCN(S(=O)(=O)c2ccc(NC(=O)c3ccc(S(F)(F)(F)(F)F)cc3)cc2)CC1`, the fraction unbound was 0.0008 in [3] and 0.0009 in [5]. Also, the AUC(0-inf) in data set [4] is 303 ng·h/mL; in data set [11], 779 ng·h/mL. Also, the solubility in [6] stood at 0.15 µM (≈ 0.077 µg/mL). In addition, in [7], the Vd is 2.01 L/kg. In addition, the half-life in [8] is 1.03 h. This molecule had a bioavailability in data set [9] of 22.7%. Besides, the results for the IC50 in [1] and in [2] were 260 nM and 390 nM, respectively. This molecule gave a Cmax in data set [10] of 143 ng/mL. In [12], the clearance is 22.5 mL/min/kg.

Turning to `CC(C)N1CCN(S(=O)(=O)c2ccc(NC(=O)c3ccc(C(F)(F)F)cc3F)cc2)CC1`, the IC50 worked out at 380 nM in [1] and 370 nM in data set [2].

As for `CCN(C)C1CCN(S(=O)(=O)c2ccc(NC(=O)c3ccc(C(F)(F)F)cc3)cc2)CC1`, in [1], the IC50 turned out to be 1280 nM.

On to `O=C(Nc1ccc(S(=O)(=O)N2CCN(C3CCCC3)CC2)cc1)c1ccc(C(F)(F)F)cc1`, for which, in data set [1], the IC50 was 800 nM.

As for `CN(C)C1CCN(S(=O)(=O)c2ccc(NC(=O)c3ccc(C(F)(F)F)cc3)cc2)CC1`, the IC50 in data set [1] was determined as 2110 nM.

For `CC(C)N1CCN(S(=O)(=O)c2ccc(NC(=O)c3ccc(-c4ncccc4Cl)cc3)cc2)CC1`, the IC50 in data set [1] was 930 nM; in data set [2] it was 3900 nM.

For `CC(C)N1CCCN(S(=O)(=O)c2ccc(NC(=O)c3ccc(C(F)(F)F)cc3)cc2)CC1`, in data set [1], the IC50 is 1320 nM.

For the molecule `CC(C)N1CCN(S(=O)(=O)c2ccc(NC(=O)c3ccc(C(F)(F)F)cc3N)cc2)CC1`, the concentration for half-maximal inhibition (IC50) in data set [1] turned out to be 930 nM; in data set [2] it was 2920 nM.

For `CN(C)S(=O)(=O)c1ccc(NC(=O)c2ccc(C(F)(F)F)cc2)cc1`, the results for the IC50 in [1] and in data set [2] were 4220 nM and 5740 nM, respectively.

`CC(C)N1CCN(S(=O)(=O)c2ccc(NC(=O)c3ccc(C(C)(C)C)cc3)cc2)CC1`: the IC50 turned out to be 390 nM in data set [1] and 1050 nM in [2].

In the case of `CC(C)N1CCN(S(=O)(=O)c2ccc(NC(=O)c3ccc(C(F)(F)F)cc3)cc2)CC1`, the results for the IC50 in [1] and in data set [2] were 710 nM and 940 nM, respectively.

On to `CC(C)N1CCN(S(=O)(=O)c2ccc(NC(=O)c3cccc(C(F)(F)F)c3)cc2)CC1`, for which the IC50 worked out at 2170 nM in data set [1] and 1940 nM in data set [2].

As to `CC(C)N1CCN(C(=O)c2ccc(NC(=O)c3ccc(C(F)(F)F)cc3)cc2)CC1`, the IC50 in data set [1] and in data set [2] was > 10000 nM in each case.

With `CC(C)N1CCN(S(=O)(=O)c2ccc(NS(=O)(=O)c3ccc(C(F)(F)F)cc3)cc2)CC1`, the IC50 in data set [1] and in data set [2] was > 10000 nM each time.
